Results reported in ChEMBL document CHEMBL1159242, “Studies on the inhibitory effects of caffeoylquinic acids on monocyte migration and superoxide ion production” (J Nat Prod, 1995).
Activity calls are given as the source filed them. The calls are words filed in the database; no cut-off is given here.

How the values were obtained:
Monocyte [1] = assay: Inhibition of healthy human monocyte migration assessed as chemotactic index at 100 nM after 45 mins; type: functional, cell-based
Monocyte [2] = assay: Inhibition of O2- radical production in zymosan-stimulated healthy human monocyte measured after 1 hr at 37 degC; type: functional, cell-based
[3] = Cytotoxicity against human monocytes measured by LDH activity; type: cell-based; details: monocyte
Monocyte [4] = assay: Inhibition of healthy human monocyte migration assessed as chemotactic index at 0.01 nM after 45 mins; type: functional, cell-based
Monocyte [5] = assay: Inhibition of healthy human monocyte migration assessed as chemotactic index at 0.1 pM after 45 mins; type: functional, cell-based
Monocyte [6] = assay: Inhibition of healthy human monocyte migration assessed as chemotactic index at 0.001 to 0.00001 pM; type: functional, cell-based
Monocyte [7] = assay: Inhibition of healthy human monocyte migration assessed as chemotactic index at 0.001 to 0.00001 pM after >45 mins; type: functional, cell-based
Monocyte [8] = assay: Inhibition of O2- radical production in zymosan-stimulated healthy human monocyte measured after 45 mins at 37 degC; type: functional, cell-based
Monocyte [9] = assay: Inhibition of O2- radical production in zymosan-stimulated healthy human monocyte assessed as increase in H2O production after 1 hr at 37 degC; type: functional, cell-based
Monocyte [10] = assay: Inhibition of O2- radical production in zymosan-stimulated healthy human monocyte assessed as inhibition H2O2 production after 1 hr at 37 degC; type: functional, cell-based

In the case of `O=C(/C=C/c1ccc(O)c(O)c1)O[C@H]1[C@H](O)C[C@](O)(C(=O)O)C[C@H]1OC(=O)/C=C/c1ccc(O)c(O)c1`, the Activity (Monocyte [1]) is reported as “inactive”, the Activity (Monocyte [2]) is reported as “Dose-dependent effect” and the Activity [3] is reported as “Non-toxic”.
In the case of `O=C(/C=C/c1ccc(O)c(O)c1)O[C@@H]1C[C@](O)(C(=O)O)C[C@@H](OC(=O)/C=C/c2ccc(O)c(O)c2)[C@H]1O`, the Activity (Monocyte [4]) is reported as “Active”, the Activity (Monocyte [5]) is reported as “Active” and the Activity (Monocyte [6]) is reported as “Active”. For the same compound, the Activity (Monocyte [7]) was “inactive”, the Activity (Monocyte [2]) was “Dose-dependent effect” and the Activity (Monocyte [8]) was “Active”. For the same compound, the Activity (Monocyte [9]) was “Active”, the Activity (Monocyte [10]) was “Active” and the Activity [3] was “Non-toxic”.
For `O=C(/C=C/c1ccc(O)c(O)c1)O[C@@H]1C[C@](O)(C(=O)O)C[C@@H](OC(=O)/C=C/c2ccc(O)c(O)c2)[C@H]1OC(=O)/C=C/c1ccc(O)c(O)c1`, the Activity [3] was “Non-toxic”.
